Experimental data as given in patent US7880007B2, “Bicyclic substituted phenyl piperidine modulators of muscarinic receptors” (Vertex Pharmaceuticals Incorporated, priority 2004, dated 2011).

Legend:
Type in all cases: cell-based
M1 muscarinic receptor = target: T1, M1 muscarinic receptor (Homo sapiens, UniProt P11229); experiment: Functional mobilization of intracellular calcium (FLIPR), M1-CHO cells; conditions: for Emax: 100% efficacy is the maximum response obtained with the Carbachol control; for M1 Activity: M1-CHO cells, calcium mobilization (FLIPR)
T1 construct: expressed in transfected cells; host or cells: CHO (M1-CHO)
T1 sequence (P11229 1-460): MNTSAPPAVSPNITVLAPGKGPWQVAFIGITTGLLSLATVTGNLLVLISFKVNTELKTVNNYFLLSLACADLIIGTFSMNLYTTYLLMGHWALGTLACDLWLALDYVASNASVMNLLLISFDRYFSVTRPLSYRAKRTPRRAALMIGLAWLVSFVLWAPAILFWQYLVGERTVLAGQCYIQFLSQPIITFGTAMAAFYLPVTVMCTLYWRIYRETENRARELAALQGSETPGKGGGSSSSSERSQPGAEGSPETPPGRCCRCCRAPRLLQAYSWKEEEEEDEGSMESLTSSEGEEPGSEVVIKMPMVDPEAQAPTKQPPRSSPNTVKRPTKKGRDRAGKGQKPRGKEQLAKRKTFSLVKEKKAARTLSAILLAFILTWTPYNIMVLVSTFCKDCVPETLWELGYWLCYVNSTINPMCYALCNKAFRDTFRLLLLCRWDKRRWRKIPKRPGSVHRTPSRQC
Method in brief: (§1)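 Calcium mobilisation read by FLIPR over 60 s (ex 488/em 540 nm) in recombinant muscarinic CHO lines loaded with calcium dye plus 1 mM probenecid. Compounds tested as agonists alone, or as inhibitors against EC80 carbachol after 15 min pre-incubation or co-addition; 0.5% DMSO; efficacy scaled to carbachol maximal response.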

M2 muscarinic receptor = target: T2, M2 muscarinic receptor (Homo sapiens, UniProt P08172); experiment: Functional mobilization of intracellular calcium (FLIPR), M2-CHO cells; conditions: for Emax: 100% efficacy is the maximum response obtained with the Carbachol control; for M2 Activity: M2-CHO cells, calcium mobilization (FLIPR)
T2 construct: expressed in transfected cells; host or cells: CHO (M2-CHO)
T2 sequence (P08172 1-466): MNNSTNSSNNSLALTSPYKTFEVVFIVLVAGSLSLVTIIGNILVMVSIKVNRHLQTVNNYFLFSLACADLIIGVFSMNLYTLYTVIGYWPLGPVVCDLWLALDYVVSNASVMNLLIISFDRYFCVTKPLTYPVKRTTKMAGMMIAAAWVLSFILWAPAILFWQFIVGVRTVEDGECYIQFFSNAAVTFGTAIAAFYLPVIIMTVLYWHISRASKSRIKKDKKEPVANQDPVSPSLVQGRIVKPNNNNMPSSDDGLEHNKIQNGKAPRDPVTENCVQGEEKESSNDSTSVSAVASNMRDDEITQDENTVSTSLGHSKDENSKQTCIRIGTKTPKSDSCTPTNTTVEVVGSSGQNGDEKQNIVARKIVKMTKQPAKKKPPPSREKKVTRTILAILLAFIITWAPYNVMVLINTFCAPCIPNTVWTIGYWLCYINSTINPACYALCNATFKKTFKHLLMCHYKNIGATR
Method in brief: as §1

M3 muscarinic receptor = target: T3, M3 muscarinic receptor (Homo sapiens, UniProt P20309); experiment: Functional mobilization of intracellular calcium (FLIPR), M3-CHO cells; conditions: for Emax: 100% efficacy is the maximum response obtained with the Carbachol control; for M3 Activity: M3-CHO cells, calcium mobilization (FLIPR)
T3 construct: expressed in transfected cells; host or cells: CHO (M3-CHO)
Method in brief: as §1

M4 muscarinic receptor = target: T4, M4 muscarinic receptor (Homo sapiens, UniProt P08173); experiment: Functional mobilization of intracellular calcium (FLIPR), M4-CHO cells; conditions: for Emax: 100% efficacy is the maximum response obtained with the Carbachol control; for M4 Activity: M4-CHO cells, calcium mobilization (FLIPR)
T4 construct: expressed in transfected cells; host or cells: CHO (M4-CHO)
T4 sequence (P08173 1-479): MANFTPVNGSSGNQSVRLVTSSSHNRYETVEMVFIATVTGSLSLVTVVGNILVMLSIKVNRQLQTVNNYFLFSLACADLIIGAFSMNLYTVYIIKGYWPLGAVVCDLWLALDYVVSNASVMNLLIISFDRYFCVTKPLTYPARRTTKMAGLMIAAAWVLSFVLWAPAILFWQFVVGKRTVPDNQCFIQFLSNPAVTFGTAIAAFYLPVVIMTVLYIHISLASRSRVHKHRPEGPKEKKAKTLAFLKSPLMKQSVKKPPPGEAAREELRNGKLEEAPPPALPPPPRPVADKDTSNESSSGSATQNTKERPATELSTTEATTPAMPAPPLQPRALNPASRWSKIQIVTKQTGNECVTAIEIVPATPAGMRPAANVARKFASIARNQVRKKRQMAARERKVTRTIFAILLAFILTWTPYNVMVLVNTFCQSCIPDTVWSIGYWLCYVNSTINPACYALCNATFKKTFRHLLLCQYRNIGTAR
Method in brief: as §1

T3 sequence (P20309 whole entry): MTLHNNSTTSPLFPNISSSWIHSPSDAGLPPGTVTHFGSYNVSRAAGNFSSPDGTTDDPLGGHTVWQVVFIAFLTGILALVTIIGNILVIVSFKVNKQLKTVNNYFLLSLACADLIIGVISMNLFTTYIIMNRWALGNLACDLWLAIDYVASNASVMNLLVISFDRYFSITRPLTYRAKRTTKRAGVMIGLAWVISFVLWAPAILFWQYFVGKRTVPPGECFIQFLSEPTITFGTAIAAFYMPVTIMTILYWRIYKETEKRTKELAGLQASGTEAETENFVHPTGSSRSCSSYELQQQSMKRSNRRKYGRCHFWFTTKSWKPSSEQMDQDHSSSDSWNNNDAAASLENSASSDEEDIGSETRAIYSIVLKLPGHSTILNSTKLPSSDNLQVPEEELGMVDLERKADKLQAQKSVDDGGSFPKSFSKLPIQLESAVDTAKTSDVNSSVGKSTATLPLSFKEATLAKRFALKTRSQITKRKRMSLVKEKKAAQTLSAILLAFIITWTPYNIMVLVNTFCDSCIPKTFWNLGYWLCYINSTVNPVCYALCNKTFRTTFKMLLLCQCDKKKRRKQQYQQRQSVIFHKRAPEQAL

SMILES	Emax (M1 muscarinic receptor)	M1 Activity (M1 muscarinic receptor)	Emax (M2 muscarinic receptor)	M2 Activity (M2 muscarinic receptor)	Emax (M3 muscarinic receptor)	M3 Activity (M3 muscarinic receptor)	Emax (M4 muscarinic receptor)	M4 Activity (M4 muscarinic receptor)
COc1ccccc1C1CCN(C2CCCC(C)C2)CC1 (centres unmarked) [Compound 398]	25 to 100%	+ (activity was measured to be greater than 5.0 μM)	< 25%	+ (activity was measured to be greater than 5.0 μM)	< 25%	+ (activity was measured to be greater than 5.0 μM)	25 to 100%	+++ (activity was measured to be less than 1.0 μM)
COc1ccc(-c2ccc(CC#N)cc2)cc1C1CCN(C2CCCCC2)CC1 [Compound 399]	< 25%	+ (activity was measured to be greater than 5.0 μM)	< 25%	+ (activity was measured to be greater than 5.0 μM)	< 25%	+ (activity was measured to be greater than 5.0 μM)	25 to 100%	++ (activity was measured to be from 1.0 μM to 5.0 μM)
COc1ccc(-c2ccc(NC(C)=O)cc2)cc1C1CCN([C@H]2C[C@H]3CC[C@H]2C3)CC1 [Compound 400]	< 25%	+ (activity was measured to be greater than 5.0 μM)	< 25%	+ (activity was measured to be greater than 5.0 μM)	< 25%	+ (activity was measured to be greater than 5.0 μM)	< 25%	+ (activity was measured to be greater than 5.0 μM)
COc1ccc(-c2ccc(C(=O)NC3CC3)cc2)cc1C1CCN([C@H]2C[C@H]3CC[C@H]2C3)CC1 [Compound 401]	< 25%	+ (activity was measured to be greater than 5.0 μM)	< 25%	+ (activity was measured to be greater than 5.0 μM)	< 25%	+ (activity was measured to be greater than 5.0 μM)	< 25%	+ (activity was measured to be greater than 5.0 μM)
COc1cccc(-c2ccccc2C2CCN([C@H]3C[C@H]4CC[C@H]3C4)CC2)c1OC [Compound 402]	< 25%	+ (activity was measured to be greater than 5.0 μM)	< 25%	+ (activity was measured to be greater than 5.0 μM)	< 25%	+ (activity was measured to be greater than 5.0 μM)	25 to 100%	++ (activity was measured to be from 1.0 μM to 5.0 μM)
COc1ccc(-c2ccc(C(C)(C)C#N)cc2)cc1C1CCN(C2C[C@H]3CC[C@H]2C3)CC1 (some centres unmarked) [Compound 403]	25 to 100%	+ (activity was measured to be greater than 5.0 μM)	< 25%	+ (activity was measured to be greater than 5.0 μM)	< 25%	+ (activity was measured to be greater than 5.0 μM)	25 to 100%	++ (activity was measured to be from 1.0 μM to 5.0 μM)
C=Cc1ccc(OC)c(C2CCN([C@@H]3C[C@H]4CC[C@H]3C4)CC2)c1 [Compound 404]	25 to 100%	++ (activity was measured to be from 1.0 μM to 5.0 μM)	< 25%	+ (activity was measured to be greater than 5.0 μM)	< 25%	+ (activity was measured to be greater than 5.0 μM)	25 to 100%	+++ (activity was measured to be less than 1.0 μM)
